Where a name gives a salt, the structure may show the parent alone.
Assay: Block of Conditioned Avoidance Responding (Rat) test (CAR)
Assay type: in vivo, male Fischer 344 rats
Conditions: po, read-out: % inhibition CAR
Protocol: The sessions consist of 60 trials, one every minute.
% change CAR=((Day 2% CAR/Day 1% CAR)×100)-100
Failure to escape was calculated for each animal as follows:
% Failures=#of Failures to Escape/#of trials

Structure (SMILES)	change in vivo at 5 mg/kg [%]
CC(C)Oc1ccccc1N1CCN(Cc2cccc(CN3CCCCC3=O)c2)CC1 [CP #1, 1-[[3-[[1-[2-(1-Methylethoxy)phenyl]-4-piperazinyl]methyl]phenyl]methyl]piperidin-2-one Hydrochloride (3:2)]	-89
CC(C)Oc1ccccc1N1CCN(Cc2ccccc2CN2CCCCC2=O)CC1 [CP #3, 1-[[2-[[1-[2-(1-Methylethoxy)phenyl]-4-piperazinyl]methyl]phenyl]methyl]-piperidin-2-one Hydrochloride (3:2)]	-6
CC(C)Oc1ccccc1N1CCN(Cc2ccc(CN3CCCCC3=O)cc2)CC1 [CP #2, 1-[[4-[[1-[2-(1-Methylethoxy)phenyl]-4-piperazinyl]methyl]phenyl]methyl]-piperidin-2-one Hydrochloride (5:1)]	-29

Source: patent US5449677A, “Cyclic benzylamino, benzylamido and benzylimido antipsychotic agents” (McNeilab, Inc., priority 1993, dated 1995)
